Assay results taken from PubChem BioAssay (NCI).
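Growth conditions: 96-well plates. Treatment: test compound, 48 hours, 5 concentrations. Analysis: linear interpolation between bracketing concentrations; unreached endpoints set to highest concentration. GI50: concentration for 50% inhibition of growth. Definition used: TGI = concentration required for complete inhibition of growth.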

What was measured:
Assay in all cases: inhibition of tumour cell growth, NCI panel, 48 h
T-47D breast = system: T-47D breast
HOP-92 NSCLC = system: HOP-92 NSCLC
UO-31 renal = system: UO-31 renal
LOX IMVI melanoma = system: LOX IMVI melanoma
CAKI-1 renal = system: CAKI-1 renal
MALME-3M melanoma = system: MALME-3M melanoma
SK-MEL-28 melanoma = system: SK-MEL-28 melanoma
COLO 205 colon = system: COLO 205 colon
HL-60(TB) leukemia = system: HL-60(TB) leukemia
TK-10 renal = system: TK-10 renal
BT-549 breast = system: BT-549 breast
SR leukemia = system: SR leukemia
OVCAR-3 ovarian = system: OVCAR-3 ovarian
K-562 leukemia = system: K-562 leukemia
SK-OV-3 ovarian = system: SK-OV-3 ovarian
HOP-62 NSCLC = system: HOP-62 NSCLC
SNB-75 CNS = system: SNB-75 CNS
MDA-MB-231 breast = system: MDA-MB-231 breast
A498 renal = system: A498 renal
UACC-62 melanoma = system: UACC-62 melanoma
M14 melanoma = system: M14 melanoma
OVCAR-4 ovarian = system: OVCAR-4 ovarian
A549 NSCLC = system: A549 NSCLC
NCI/ADR-RES ovarian = system: NCI/ADR-RES ovarian
MCF7 breast = system: MCF7 breast
RPMI-8226 leukemia = system: RPMI-8226 leukemia
HT29 colon = system: HT29 colon
SF-268 CNS = system: SF-268 CNS
SNB-19 CNS = system: SNB-19 CNS
OVCAR-8 ovarian = system: OVCAR-8 ovarian

## Cn1cc(-c2cc(N)n3nc(-c4c[nH]c5ccccc45)cc3n2)c2ccccc21
T-47D breast
  GI50: 2.02 µM
  TGI: 4.58 µM
HOP-92 NSCLC
  GI50: 2.29 µM
  TGI: 5.47 µM
UO-31 renal
  GI50: 1.64 µM
  TGI: 3.28 µM
LOX IMVI melanoma
  GI50: 1.81 µM
  TGI: 3.25 µM
CAKI-1 renal
  GI50: 1.91 µM
  TGI: 4.48 µM
MALME-3M melanoma
  GI50: 1.56 µM
  TGI: 2.9 µM
SK-MEL-28 melanoma
  GI50: 1.66 µM
  TGI: 3.03 µM
COLO 205 colon
  GI50: 1.72 µM
  TGI: 3.35 µM
HL-60(TB) leukemia
  GI50: 1.99 µM
  TGI: 5.08 µM
TK-10 renal
  GI50: 2.15 µM
  TGI: 7.17 µM
BT-549 breast
  GI50: 14.8 µM
  TGI: 29.8 µM
SR leukemia
  GI50: 2.01 µM
  TGI: 39 µM
OVCAR-3 ovarian
  GI50: 2.1 µM
  TGI: 4.59 µM
K-562 leukemia
  GI50: 2.34 µM
  TGI: 6.81 µM
SK-OV-3 ovarian
  GI50: 11.8 µM
  TGI: 25.6 µM
HOP-62 NSCLC
  GI50: 3.09 µM
  TGI: 10.5 µM
SNB-75 CNS
  GI50: 7.65 µM
  TGI: 21.3 µM
MDA-MB-231 breast
  GI50: 1.9 µM
  TGI: 3.47 µM
A498 renal
  GI50: 7.63 µM
  TGI: 20.8 µM
UACC-62 melanoma
  GI50: 1.74 µM
  TGI: 3.17 µM
M14 melanoma
  GI50: 1.79 µM
  TGI: 3.66 µM
OVCAR-4 ovarian
  GI50: 3.26 µM
  TGI: 14.7 µM
A549 NSCLC
  GI50: 3.01 µM
  TGI: 12 µM
NCI/ADR-RES ovarian
  GI50: 2.65 µM
  TGI: 7.75 µM
MCF7 breast
  GI50: 1.81 µM
  TGI: 3.78 µM
RPMI-8226 leukemia
  GI50: 2.51 µM
  TGI: 6.95 µM
HT29 colon
  GI50: 1.69 µM
  TGI: 3.23 µM
SF-268 CNS
  GI50: 4.25 µM
  TGI: 20.6 µM
SNB-19 CNS
  GI50: 3.14 µM
  TGI: 11.4 µM
OVCAR-8 ovarian
  GI50: 2.66 µM
